For 1 molecule, AUC free and AUC total results are on record in patent US20180344646A1, “AMORPHOUS DISPERSION GRANULES AND ORAL DOSAGE FORMS” (PATHEON DEVELOPMENT SERVICES INC., priority 2015, published 2018).

This data set in a line: In vitro non-sink dissolution, gastric-to-intestinal media transfer test. Type of data set: physicochemical. Also noted: AUC free: concentration or dose not given beside the values; AUC total: unit not given here. Conditions: for AUC free: free drug; for AUC total: non-sink.
The mark [1] stands for this setting: Table 5 (nifedipine), Fasted Simulated Gastric (0.1 N HCl).
Where [2] appears, read: Table 5 (nifedipine), Fasted Simulated Intestinal (FaSSIF, pH 6.8).

As to `COc1ccc2c(c1)c(CC(=O)O)c(C)n2C(=O)c1ccc(Cl)cc1` [indomethacin crystalline API, indomethacin], the AUC free is reported as 0.0 (Table 2, Fasted Simulated Gastric (0.1 N HCl)); 63324.8 (Table 2, Fasted Simulated Intestinal (FaSSIF, H 6.8)); 68.9 under setting [1]; 1349.5 under setting [2]. The AUC total is, setting by setting: (Table 2, Fasted Simulated Gastric (0.1 N HCl), 2 mg indomethacin per mL) 1020.4; (Table 2, Fasted Simulated Intestinal (FaSSIF, H 6.8), 1 mg indomethacin per mL) 81054.9; under setting [1], 483.4; under setting [2], 2810.0.
